Reference: PMC10390520, “Antibody binding of amyloid beta peptide epimers/isomers and ramifications for immunotherapies and drug development” (Scientific Reports, 2023)

System: antibodies 4G8, 6E10, mOC98 and mOC23
Experiment: Immunoprecipitation of Aβ 1–42 peptides with four antibodies, LC-MS/MS detection
Type: binding
Settings: Fig. 3B data, corrected with individual MS/MS calibration curves; 11 pmol Aβ peptide, 13.2 pmol antibody in 300 µL IP lysis/wash buffer; Protein A/G plus agarose; LC-MS/MS 903–886 m/z; triplicate
Description: Antibody binding efficacy was assessed through an immunoprecipitation procedure, followed by reconstitution in borate buffer and analysis via liquid chromatography tandem mass spectrometry (see Methods). […] Note that these antibodies were developed using the WT (all L) Aβ peptide. Further, the MS/MS detection also was optimized using the WT (all L) Aβ peptide. […] The reduced signal intentensities could be attributed to the altered binding between the antibody and the “aberrant” forms of Aβ, differences in the MS/MS of the “aberrant” Aβ or combinations of these two factors. […]
Purified anti-β-Amyloids 17–24 Antibody (4G8) and 1–16 Antibody (6E10) were purchased from BioLegend (San Diego, CA, USA) while mOC-type antibodies recombinant anti-beta amyloid 1–42 mOC98 and mOC23 were purchased from Abcam (Cambridge, UK). Antibody-antigen binding was measured using Pierce Classic IP Kit by Thermo Fisher Scientific (Waltham, MA, USA). […] Elution buffer was evaporated and samples were reconstituted in 20 µL of 0.1 M borate buffered to pH 9.1 and analyzed by LC–MS/MS. […]
HPLC–MS grade acetonitrile was purchased from Sigma-Aldrich and ultrapure water was obtained from a Milli-Q-water system (Millipore, Bedford, MA, USA). […] WT (all L) Aβ 1–42 and aberrant Aβ 1–42 immunoprecipitated standards were quantitated using the MS/MS transition 903–886 m/z. […]

- antibody binding affinity (immunoprecipitation extraction) compared to WT (all L) Aβ: same efficacy
Substance: WT (all L) Aβ: unmodified wild-type all-L amyloid beta 1–42 peptide, purchased from Genscript
